{"source": "ChEMBL document CHEMBL3351946", "about": "“Design and synthesis of potent antitumor water-soluble phenyl N-mustard-benzenealkylamide conjugates via a bioisostere approach” (Eur J Med Chem, 2014)", "key": {"CCRF-CEM": {"test_system": "CCRF-CEM", "experiment": "Cytotoxicity against vinblastine-resistant human CCRF-CEM cells assessed as growth inhibition after 72 hrs by Alamar Blue assay", "format": "functional, cell-based"}, "[1]": {"experiment": "Antitumor activity against human PC3 cells xenografted in nude mouse assessed as tumor growth inhibition at 40 mg/kg,iv administered every 2 days for 5 doses measured on day 21 relative to control", "format": "functional, PC-3"}, "[2]": {"experiment": "Antitumor activity against human HCT116 cells xenografted in nude mouse assessed as tumor growth inhibition at 30 mg/kg,iv qd administered for 6 days measured on day 15 relative to control", "format": "functional, HCT-116"}, "[3]": {"experiment": "Antitumor activity against human H3347 cells xenografted in nude mouse assessed as tumor growth inhibition at 30 mg/kg,iv qd administered for 6 days measured on day 31 relative to control", "format": "functional", "conditions": "read-out: TGI"}, "[4]": {"experiment": "Antitumor activity against human PC3 cells xenografted in nude mouse assessed as tumor growth inhibition at 30 mg/kg,iv qd administered for 6 days measured on day 21 relative to control", "format": "functional, PC-3"}, "[5]": {"experiment": "Antitumor activity against human HCT116 cells xenografted in nude mouse assessed as tumor growth inhibition at 30 mg/kg,iv qd administered for 6 days measured on day 31 relative to control", "format": "functional", "conditions": "HCT-116, iv, read-out: TGI"}, "[6]": {"experiment": "Antitumor activity against human PC3 cells xenografted in nude mouse assessed as tumor growth inhibition at 40 mg/kg,iv administered every 2 days for 5 doses measured on day 38 relative to control", "format": "functional", "conditions": "PC-3, iv, read-out: TGI"}, "[7]": {"experiment": "Antitumor activity against human PC3 cells xenografted in nude mouse assessed as tumor growth inhibition at 50 mg/kg,iv administered every 2 days for 5 doses measured on day 38 relative to control", "format": "functional", "conditions": "PC-3, iv, read-out: TGI"}, "[8]": {"experiment": "Antitumor activity against human H460 cells xenografted in nude mouse assessed as tumor growth inhibition at 30 mg/kg,iv qd administered for 6 days measured on day 37 relative to control", "format": "functional", "conditions": "NCI-H460, iv, read-out: TGI"}, "Mus musculus [9]": {"test_system": "Mus musculus", "experiment": "Toxicity in nude mouse xenografted with human PC3 cells assessed as body weight loss at 50 mg/kg,iv administered every 2 days for 5 doses measured on day 16 relative to control", "format": "organism-based, PC-3", "set-up": "dose 50 mg/kg", "conditions": "in vivo, 48 h"}, "Mus musculus [10]": {"test_system": "Mus musculus", "experiment": "Toxicity in nude mouse xenografted with human PC3 cells assessed as change in body weight at 40 mg/kg,iv administered every 2 days for 5 doses measured on day 38 relative to control", "format": "organism-based, PC-3", "set-up": "dose 40 mg/kg", "conditions": "in vivo, 48 h"}, "Mus musculus [11]": {"test_system": "Mus musculus", "experiment": "Toxicity in nude mouse xenografted with human H460 cells assessed as body weight loss at 30 mg/kg,iv qd administered for 6 days measured on day 37 relative to control", "format": "organism-based", "set-up": "dose 30 mg/kg", "conditions": "in vivo, 144 h"}, "PC-3": {"test_system": "PC-3", "experiment": "Antitumor activity against human PC3 cells xenografted in nude mouse assessed as survival at 30 mg/kg,iv qd administered for 6 days", "format": "functional, organism-based", "set-up": "dose 30 mg/kg"}, "[12]": {"experiment": "Antitumor activity against human HCT116 cells xenografted in nude mouse assessed as tumor growth inhibition at 75 mg/kg,[…] ip administered every 7 days for 2 doses relative to control", "format": "functional", "conditions": "HCT-116, ip, 168 h, route intraperitoneal, read-out: TGI"}, "HCT-116": {"test_system": "HCT-116", "experiment": "Induction of DNA interstand crosslinking in human HCT116 cells under aerobic condition assessed as decrease in tail moment at 0.5 to 1 uM preincubated for 1 hr followed by 20 Gy X-ray irradiation by comet assay", "format": "cell-based"}, "[13]": {"experiment": "Cell cycle arrest in human HCT116 cells assessed as accumulation at S phase at 1 uM after 24 hrs by FACS flow cytometric analysis (reference value: 18.71 +/- 2.25%)", "format": "functional, cell-based", "conditions": "HCT-116"}, "[14]": {"experiment": "Cell cycle arrest in human HCT116 cells assessed as accumulation at G2/M phase at 1 uM after 24 hrs by FACS flow cytometric analysis (reference value: 31.55 +/- 4.63%)", "format": "functional, cell-based", "conditions": "HCT-116"}, "[15]": {"experiment": "Cell cycle arrest in human HCT116 cells assessed as accumulation at S phase at 2 uM after 24 hrs by FACS flow cytometric analysis (reference value: 18.71 +/- 2.25%)", "format": "functional, cell-based", "conditions": "HCT-116"}, "[16]": {"experiment": "Cell cycle arrest in human HCT116 cells assessed as accumulation at G2/M phase at 2 uM after 24 hrs by FACS flow cytometric analysis (reference value: 31.55 +/- 4.63%)", "format": "functional, cell-based", "conditions": "HCT-116"}, "[17]": {"experiment": "Cell cycle arrest in human HCT116 cells assessed as accumulation at G1 phase at 4 uM after 24 hrs by FACS flow cytometric analysis (reference value: 48.75 +/- 3.69%)", "format": "functional, cell-based", "conditions": "HCT-116"}, "[18]": {"experiment": "Cell cycle arrest in human HCT116 cells assessed as accumulation at S phase at 4 uM after 24 hrs by FACS flow cytometric analysis (reference value: 18.71 +/- 2.25%)", "format": "functional, cell-based", "conditions": "HCT-116"}, "[19]": {"experiment": "Cell cycle arrest in human HCT116 cells assessed as accumulation at G1 phase at 1 uM after 48 hrs by FACS flow cytometric analysis (reference value: 62.16 +/- 5.94%)", "format": "functional, cell-based", "conditions": "HCT-116"}, "[20]": {"experiment": "Cell cycle arrest in human HCT116 cells assessed as accumulation at G2/M phase at 1 uM after 48 hrs by FACS flow cytometric analysis (reference value: 23.95 +/- 1.87%)", "format": "functional, cell-based", "conditions": "HCT-116"}, "[21]": {"experiment": "Cell cycle arrest in human HCT116 cells assessed as accumulation at sub-G1 phase at 2 uM after 48 hrs by FACS flow cytometric analysis (reference value: 1.65 +/- 0.06%)", "format": "functional, cell-based", "conditions": "HCT-116"}, "[22]": {"experiment": "Cell cycle arrest in human HCT116 cells assessed as accumulation at G2/M phase at 2 uM after 48 hrs by FACS flow cytometric analysis (reference value: 23.95 +/- 1.87%)", "format": "functional, cell-based", "conditions": "HCT-116"}, "[23]": {"experiment": "Cell cycle arrest in human HCT116 cells assessed as accumulation at G2/M phase at 4 uM after 48 hrs by FACS flow cytometric analysis (reference value: 23.95 +/- 1.87%)", "format": "functional, cell-based", "conditions": "HCT-116"}, "[24]": {"experiment": "Cell cycle arrest in human HCT116 cells assessed as accumulation at sub-G1 phase at 1 uM after 72 hrs by FACS flow cytometric analysis (reference value: 3.29 +/- 1.39%)", "format": "functional, cell-based", "conditions": "HCT-116"}, "[25]": {"experiment": "Cell cycle arrest in human HCT116 cells assessed as accumulation at S phase at 1 uM after 72 hrs by FACS flow cytometric analysis (reference value: 7.49 +/- 0.95%)", "format": "functional, cell-based", "conditions": "HCT-116"}, "[26]": {"experiment": "Cell cycle arrest in human HCT116 cells assessed as accumulation at S phase at 2 uM after 72 hrs by FACS flow cytometric analysis (reference value: 7.49 +/- 0.95%)", "format": "functional, cell-based", "conditions": "HCT-116"}, "[27]": {"experiment": "Cell cycle arrest in human HCT116 cells assessed as accumulation at G2/M phase at 2 uM after 72 hrs by FACS flow cytometric analysis (reference value: 12.82 +/- 2.19%)", "format": "functional, cell-based", "conditions": "HCT-116"}, "[28]": {"experiment": "Cell cycle arrest in human HCT116 cells assessed as accumulation at G2/M phase after 24 hrs by FACS flow cytometric analysis", "format": "functional, cell-based", "conditions": "HCT-116"}, "Mus musculus [29]": {"test_system": "Mus musculus", "experiment": "Toxicity in iv dosed CD-1 (ICR) mouse assessed as piloerection measured for 14 days", "format": "organism-based", "conditions": "in vivo, 336 h"}, "Mus musculus [30]": {"test_system": "Mus musculus", "experiment": "Toxicity in iv dosed CD-1 (ICR) mouse assessed as hunch posture measured for 14 days", "format": "organism-based", "conditions": "in vivo, 336 h"}, "Mus musculus [31]": {"test_system": "Mus musculus", "experiment": "Toxicity in iv dosed CD-1 (ICR) mouse assessed as feces stain measured for 14 days", "format": "organism-based", "conditions": "in vivo, 336 h"}, "Mus musculus [32]": {"test_system": "Mus musculus", "experiment": "Toxicity in CD-1 (ICR) mouse assessed as gross lesions in spleen at 150 mg/kg, iv measured for 14 days", "format": "organism-based", "set-up": "dose 150 mg/kg, route intravenous", "conditions": "in vivo, 336 h"}}, "note": "Calls of active or inactive are those of the source. No cut-off for these calls is given here."}
{"smiles": "CCN(CC)CC(=O)Nc1ccc(NC(=O)Nc2ccc(N(CCCl)CCCl)cc2)cc1", "values": [{"measurement": "IC50", "setting": "CCRF-CEM", "value": 2160, "unit": "nM"}, {"measurement": "%max", "setting": "[1]", "value": 68, "unit": "%"}, {"measurement": "%max", "setting": "[2]", "value": 91, "unit": "%"}, {"measurement": "inhibition in vivo at 30 mg/kg", "setting": "[3]", "value": 90, "unit": "%"}, {"measurement": "%max", "setting": "[4]", "value": 56, "unit": "%"}, {"measurement": "inhibition in vivo at 30 mg/kg", "setting": "[5]", "value": 84, "unit": "%"}, {"measurement": "inhibition in vivo at 40 mg/kg", "setting": "[6]", "value": 3, "unit": "%"}, {"measurement": "inhibition in vivo at 50 mg/kg", "setting": "[7]", "value": 62, "unit": "%"}, {"measurement": "inhibition in vivo at 30 mg/kg", "setting": "[8]", "value": 53, "unit": "%"}, {"measurement": "%max", "setting": "Mus musculus [9]", "value": -16, "unit": "%"}, {"measurement": "Activity", "setting": "Mus musculus [10]", "value": -12, "unit": "%"}, {"measurement": "Activity", "setting": "Mus musculus [11]", "value": -5, "unit": "%"}, {"measurement": "Activity", "setting": "PC-3", "value": "Active"}, {"measurement": "inhibition in vivo at 75 mg/kg", "setting": "[12]", "value": 54, "unit": "%"}, {"measurement": "Activity", "setting": "HCT-116", "value": "Active"}, {"measurement": "Activity", "setting": "[13]", "value": 18.7, "unit": "%"}, {"measurement": "Activity", "setting": "[14]", "value": 63.2, "unit": "%"}, {"measurement": "Activity", "setting": "[15]", "value": 23.9, "unit": "%"}, {"measurement": "Activity", "setting": "[16]", "value": 64.3, "unit": "%"}, {"measurement": "Activity", "setting": "[17]", "value": 12.8, "unit": "%"}, {"measurement": "Activity", "setting": "[18]", "value": 27.6, "unit": "%"}, {"measurement": "Activity", "setting": "[19]", "value": 49.6, "unit": "%"}, {"measurement": "Activity", "setting": "[20]", "value": 28.2, "unit": "%"}, {"measurement": "Activity", "setting": "[21]", "value": 8.48, "unit": "%"}, {"measurement": "Activity", "setting": "[22]", "value": 28.2, "unit": "%"}, {"measurement": "Activity", "setting": "[23]", "value": 54.1, "unit": "%"}, {"measurement": "Activity", "setting": "[24]", "value": 12.4, "unit": "%"}, {"measurement": "Activity", "setting": "[25]", "value": 11.7, "unit": "%"}, {"measurement": "Activity", "setting": "[26]", "value": 12.1, "unit": "%"}, {"measurement": "Activity", "setting": "[27]", "value": 29.2, "unit": "%"}, {"measurement": "Activity", "setting": "[28]", "value": "Dose-dependent effect"}, {"measurement": "Activity", "setting": "Mus musculus [29]", "value": "Dose-dependent effect"}, {"measurement": "Activity", "setting": "Mus musculus [30]", "value": "Dose-dependent effect"}, {"measurement": "Activity", "setting": "Mus musculus [31]", "value": "Dose-dependent effect"}, {"measurement": "Activity", "setting": "Mus musculus [32]", "value": "Toxic"}]}
